Measured values taken from US7462600B2, “Macrolides” (Pfizer Inc, priority 2004, dated 2008).
Converted amounts (≈) assume the structure as drawn.

Assays:
Assay type in all cases: cell-based
[1] = system: Haemophilus influenzae 1218; assay: MIC, microtiter broth dilution (NCCLS M100-S14), H. influenzae 1218 (susceptible); details: Haemophilus influenzae 1218
How it was run: (§1)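 Compounds were first dissolved in DMSO (40 mg/ml stock), then tested by broth dilution in microtiter trays. MICs were interpreted using the 14th Informational Supplement (M100-S14) criteria.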

[2] = system: Streptococcus pneumoniae 1016; assay: MIC, microtiter broth dilution (NCCLS M100-S14), S. pneumoniae 1016 (susceptible); details: Streptococcus pneumoniae 1016
How it was run: as §1

[3] = system: Streptococcus pyogenes 1079; assay: MIC, microtiter broth dilution (NCCLS M100-S14), S. pyogenes 1079 (ermB); details: Streptococcus pyogenes 1079
How it was run: as §1

[4] = system: Streptococcus pneumoniae 1175; details: Streptococcus pneumoniae 1175; microtiter broth dilution
How it was run: as §1

[5] = system: Streptococcus pneumoniae 1095; details: Streptococcus pneumoniae 1095; microtiter broth dilution
How it was run: as §1

Row | SMILES | MIC H. influenzae 1218 [1] [µg/mL] | MIC S. pneumo. 1016 [2] [µg/mL] | MIC S. pyogenes 1079 [3] [µg/mL] | MIC S. pneumo. 1175 [4] [µg/mL] | MIC S. pneumo. 1095 [5] [µg/mL]
1 | CCC1OC(=O)C(C)C(=O)C(C)C(OC2OC(C)CC(N(C)C)C2O)C(C)(OC)CC(C)C(=O)C(C)C2N(C3CN(Cc4cccc5nccnc45)C3)C(=O)OC12C (centres unmarked) [Example 1.12, 3-descladinosyl-11,12-dideoxy-6-O-methyl-3-oxo-12,11-(oxycarbonyl-(1-((quinoxalin-8-yl)-methyl)-azetidin-3-yl)-imino)-erythromycin A] | 0.25 (≈ 0.309 µM) | <0.06 | 2 (≈ 2.47 µM) | <0.06 | <0.06
2 | CCC1OC(=O)C(C)C(=O)C(C)C(OC2OC(C)CC(N(C)C)C2O)C(C)(OC)CC(C)C(=O)C(C)C2N(C3CN(Cc4cccc5ncoc45)C3)C(=O)OC12C (centres unmarked) [Example 1.13, (benzooxazol-7-yl)methyl] | 0.25 (≈ 0.313 µM) | <0.06 | 64 (≈ 80.1 µM) | 1 (≈ 1.25 µM) | 0.12 (≈ 0.15 µM)
3 | CCC1OC(=O)C(C)C(=O)C(C)C(OC2OC(C)CC(N(C)C)C2O)C(C)(OC)CC(C)C(=O)C(C)C2N(C3CN(Cc4ccc(C#N)cc4)C3)C(=O)OC12C (centres unmarked) [Example 1.14, 4-cyanobenzyl] | 0.25 (≈ 0.319 µM) | <0.06 | >64.00 | 0.5 (≈ 0.639 µM) | 1 (≈ 1.28 µM)
4 | CCC1OC(=O)C(C)C(=O)C(C)C(OC2OC(C)CC(N(C)C)C2O)C(C)(OC)CC(C)C(=O)C(C)C2N(C3CN(Cc4cccc(C#N)c4)C3)C(=O)OC12C (centres unmarked) [Example 1.15, 3-cyanobenzyl] | 0.25 (≈ 0.319 µM) | <0.06 | >64.00 | 0.25 (≈ 0.319 µM) | <0.06
5 | CCC1OC(=O)C(C)C(=O)C(C)C(OC2OC(C)CC(N(C)C)C2O)C(C)(OC)CC(C)C(=O)C(C)C2N(C3CN(Cc4ccnc5ccccc45)C3)C(=O)OC12C (centres unmarked) [Example 1.16, 3-descladinosyl-11,12-dideoxy-6-O-methyl-3-oxo-12,11-(oxycarbonyl-(1-((quinolin-4-yl)-methyl)-azetidin-3-yl)-imino)-erythromycin A] | 0.5 (≈ 0.618 µM) | <0.06 | 4.25 (≈ 5.25 µM) | 0.25 (≈ 0.309 µM) | <0.06
6 | CCC1OC(=O)C(C)C(=O)C(C)C(OC2OC(C)CC(N(C)C)C2O)C(C)(OC)CC(C)C(=O)C(C)C2N(C3CN(Cc4cnc5ncccc5c4)C3)C(=O)OC12C (centres unmarked) [Example 1.17, (1,8-naphthyridin-3-yl)methyl] | 0.12 (≈ 0.148 µM) | <0.06 | >64.00 | 0.25 (≈ 0.309 µM) | <0.06
7 | CCC1OC(=O)C(C)C(=O)C(C)C(OC2OC(C)CC(N(C)C)C2O)C(C)(OC)CC(C)C(=O)C(C)C2N(C3CN(Cc4ccn[nH]4)C3)C(=O)OC12C (centres unmarked) [Example 1.18, (1H-pyrazol-5-yl)methyl] | 0.25 (≈ 0.334 µM) | <0.06 | >64.00 | 2 (≈ 2.67 µM) | 1 (≈ 1.34 µM)
8 | CCC1OC(=O)C(C)C(=O)C(C)C(OC2OC(C)CC(N(C)C)C2O)C(C)(OC)CC(C)C(=O)C(C)C2N(C3CN(Cc4cn[nH]c4)C3)C(=O)OC12C (centres unmarked) [Example 1.19, (1H-pyrazol-4-yl)methyl] | 0.5 (≈ 0.669 µM) | <0.06 | >64.00 | 4 (≈ 5.35 µM) | 0.12 (≈ 0.16 µM)
9 | CCC1OC(=O)C(C)C(=O)C(C)C(OC2OC(C)CC(N(C)C)C2O)C(C)(OC)CC(C)C(=O)C(C)C2N(C3CN(Cc4ccnc5ncccc45)C3)C(=O)OC12C (centres unmarked) [Example 1.20, 3-descladinosyl-11,12-dideoxy-6-O-methyl-3-oxo-12,11-(oxycarbonyl-(1-((1,8-naphthyridin-4-yl)-methyl)-azetidin-3-yl)-imino)erythromycin A] | 0.25 (≈ 0.309 µM) | <0.06 | 1 (≈ 1.23 µM) | 0.12 (≈ 0.148 µM) | <0.06
10 | CCC1OC(=O)C(C)C(=O)C(C)C(OC2OC(C)CC(N(C)C)C2O)C(C)(OC)CC(C)C(=O)C(C)C2N(C3CN(C(C)c4ccncc4)C3)C(=O)OC12C (stereo not drawn) [Example 1.21, 1R-(pyridin-4-yl)ethyl] | 2 (≈ 2.59 µM) | <0.06 | 32 (≈ 41.4 µM) | 0.5 (≈ 0.647 µM) | <0.06
11 | CCC1OC(=O)C(C)C(=O)C(C)C(OC2OC(C)CC(N(C)C)C2O)C(C)(OC)CC(C)C(=O)C(C)C2N(C3CN(C(C)c4ccncc4)C3)C(=O)OC12C (stereo not drawn) [Example 1.22, 1S-(pyridin-4-yl)ethyl] | 16 (≈ 20.7 µM) | <0.06 | >64.00 | 1 (≈ 1.29 µM) | 1 (≈ 1.29 µM)
12 | CCC1OC(=O)C(C)C(=O)C(C)C(OC2OC(C)CC(N(C)C)C2O)C(C)(OC)CC(C)C(=O)C(C)C2N(C3CN(C(C)c4ccnc5ncccc45)C3)C(=O)OC12C (stereo not drawn) [Example 1.23, 3-descladinosyl-11,12-dideoxy-6-O-methyl-3-oxo-12,11-(oxycarbonyl-(1-(1S-(1,8-naphthyridin4-yl)-ethyl)-azetidin-3-yl)-imino)-erythromycin A] | 0.5 (≈ 0.607 µM) | <0.06 | 16 (≈ 19.4 µM) | 0.25 (≈ 0.303 µM) | <0.06
13 | CCC1OC(=O)C(C)C(=O)C(C)C(OC2OC(C)CC(N(C)C)C2O)C(C)(OC)CC(C)C(=O)C(C)C2N(C3CN(Cc4ccnc5nccnc45)C3)C(=O)OC12C (centres unmarked) [Example 1.24, 3-descladinosyl-11,12-dideoxy-6-O-methyl-3-oxo-12,11-(oxycarbonyl-(1-((pyrido[2,3-b]pyrazin-4-yl)-methy)-azetidin-3-yl)-imino)-erythromycin A] | 1 (≈ 1.23 µM) | <0.06 | 4 (≈ 4.93 µM) | 0.25 (≈ 0.308 µM) | <0.06
14 | CC[C@H]1OC(=O)[C@H](C)C(=O)[C@H](C)[C@@H](O[C@@H]2O[C@H](C)C[C@H](N(C)C)[C@H]2O)[C@](C)(OC)C[C@@H](C)C(=O)[C@H](C)[C@H]2N(C3CN([C@H](C)c4ccnc5ncccc45)C3)C(=O)O[C@]12C [Example 1.25, 3-descladinosyl-11,12-dideoxy-6-O-methyl-3-oxo-12,11-(oxycarbonyl-(1-(1R-(1,8-naphthyridin4-yl)-ethyl)-azetidin-3-yl)-imino)-erythromycin A] | 0.5 (≈ 0.607 µM) | <0.06 | 1 (≈ 1.21 µM) | 0.25 (≈ 0.303 µM) | <0.06
15 | CCC1OC(=O)C(C)C(=O)C(C)C(OC2OC(C)CC(N(C)C)C2O)C(C)(OC)CC(C)C(=O)C(C)C2N(C3CN(Cc4ccnc5cccnc45)C3)C(=O)OC12C (centres unmarked) [Example 1.26, 3-descladinosyl-11,12-dideoxy-6-O-methyl-3-oxo-12,11-(oxycarbonyl-(1-((1,5-naphthyridin4-yl)-methyl)-azetidin-3-yl)-imino)-erythromycin A] | 0.38 (≈ 0.469 µM) | <0.06 | 1 (≈ 1.23 µM) | <0.06 | <0.06
16 | CCC1OC(=O)C(C)C(=O)C(C)C(OC2OC(C)CC(N(C)C)C2O)C(C)(OC)CC(C)C(=O)C(C)C2N(C3CN(Cc4ccnc5ccncc45)C3)C(=O)OC12C (centres unmarked) [Example 1.27, 3-descladinosyl-11,12-dideoxy-6-O-methyl-3-oxo-12,11-(oxycarbonyl-(1-((1,6-naphthyridin-4-yl)-methyl)-azetidin-3-yl)-imino)-erythromycin A] | 0.5 (≈ 0.617 µM) | <0.06 | 2 (≈ 2.47 µM) | 0.5 (≈ 0.617 µM) | <0.06
17 | CCC1OC(=O)C(C)C(=O)C(C)C(OC2OC(C)CC(N(C)C)C2O)C(C)(OC)CC(C)C(=O)C(C)C2N(C3CN(Cc4ccc5nccnc5c4)C3)C(=O)OC12C (centres unmarked) [Example 1.28, 3-descladinosyl-11,12-dideoxy-6-O-methyl-3-oxo-12,11-(oxycarbonyl-(1-((quinoxalin-6-yl)-methyl)-azetidin-3-yl)-imino)-erythromycin A] | 0.5 (≈ 0.617 µM) | <0.06 | 8 (≈ 9.88 µM) | 4 (≈ 4.94 µM) | <0.06
18 | CCC1OC(=O)C(C)C(=O)C(C)C(OC2OC(C)CC(N(C)C)C2O)C(C)(OC)CC(C)C(=O)C(C)C2N(C3CN(Cc4n[nH]c5ccccc45)C3)C(=O)OC12C (centres unmarked) [Example 1.29, 3-descladinosyl-11,12-dideoxy-6-O-methyl-3-oxo-12,11-(oxycarbonyl-(1-((indazol-3-yl)-methyl)-azetidin-3-yl)-imino)-erythromycin A] | 0.5 (≈ 0.627 µM) | <0.06 | 2 (≈ 2.51 µM) | 1 (≈ 1.25 µM) | <0.06
19 | CCC1OC(=O)C(C)(F)C(=O)C(C)C(OC2OC(C)CC(N(C)C)C2O)C(C)(OC)CC(C)C(=O)C(C)C2N(C3CN(C(C)c4ccnc5ncccc45)C3)C(=O)OC12C (stereo not drawn) [Example 1.32, 3-descladinosyl-11,12-dideoxy-2-fluoro-6-O-methyl-3-oxo-12,11-(oxycarbonyl-(1-(1R-(1,8-naphthyridin-4-yl)-ethyl)-azetidin-3-yl)-imino)-erythromycin A] | 0.5 (≈ 0.594 µM) | <0.06 | 0.12 (≈ 0.143 µM) | 0.25 (≈ 0.297 µM) | <0.06
